Measurements as given in patent publication US20240174659A1, “COMPOUNDS AND METHODS FOR YAP/TEAD MODULATION AND INDICATIONS THEREFOR” (Opna Bio SA, priority 2021, published 2024).
Counter-ions that a name gives are not always drawn.

test system: TEAD-dependent transcription; experiment: Inhibitor activity against TEAD-dependent transcription in a cell-based reporter assay (MSTO-211H+12XGTIIC luciferase); conditions: Homo sapiens; MSTO-211H+12XGTIIC cells, 24 hours incubation, luciferase luminescence normalized to cell viability fluorescence, geometric mean; read-out: MSTO-211H GMean IC50 (uM) Cell Assay Reporter Cell Variant: TEAD
From the text: Determine Inhibitor Activity Against TEAD-Dependent Transcription in a Cell-Based Reporter Assay
The human mesothelioma cell line MSTO-211H was stably transfected with a pGL4.21 plasmid containing a synthetic promoter with 12 copies of the GTIIC TEAD response element that drives the expression of a luciferase reporter gene^1 using Lipofectamine transfection reagent (Thermo Fisher). Transfected cells were selected using puromycin and single cell clones expressing this construct (referred to as MSTO-211H+12XGTIIC) were generated by limiting dilution. MSTO-211H cells was characterized by genetic alterations in key components of the Hippo pathway^2, resulting in up-regulation of YAP/TEAD-mediated transcription. […] To evaluate TEAD inhibitors, the MSTO-211H+12XGTIIC cell line was seeded in a 96-well plate in 50 μL of culture media at 1×10^4 cells per well and incubated at 37° C. overnight. Serial dilutions of compounds (in total volume of 50 μL of culture media) were added to the cells and incubated at 37° C. for 24 hours. Each plate included cells treated with DMSO as high controls and cells treated with 20 μM of the reference compound K-975 (a known TEAD inhibitor)^3 as low controls. Cell viability was assayed by the addition of 25 μL of CellTiter-Fluor reagent (Promega) followed by a 30-minute incubation at 37° C. and quantification of the fluorescence signal (Ex400/Em505). Subsequently, luciferase expression was assayed by the addition of 25 μL of ONE-Glo reagent (Promega) followed by a 10-minute incubation at room temperature and quantification of the luminescence signal. The luminescence signal was normalized to the fluorescence signal to correct for any loss in cell viability over the 24-hour compound incubation period. The percentage of inhibition of normalized luminescence signal, indicative of compound-mediated inhibition of TEAD-dependent transcription, at individual compound concentrations relative to high and low controls was calculated. The data were analyzed by using nonlinear regression to generate IC50 values for individual compounds.

Compound | IC50 [µM]
C=CC(=O)N1CCc2cc(C)c(Oc3cccc(F)c3)cc2C1 [P-0042, 1-(7-(3-fluorophenoxy)-6-methyl-3,4-dihydroisoquinolin-2(1H)-yl)prop-2-en-1-one] | 0.001 to 0.5
C=CC(=O)N1CCc2cc(C)c(Oc3ccc(F)cc3)cc2C1 [P-0043, 1-(7-(4-fluorophenoxy)-6-methyl-3,4-dihydroisoquinolin-2(1H)-yl)prop-2-en-1-one] | 0.001 to 0.5
C=CC(=O)N1CCc2ccc(Oc3ccc(F)c(C(F)(F)F)c3)cc2C1 [P-0044, 1-(7-(4-fluoro-3-(trifluoromethyl)phenoxy)-3,4-dihydroisoquinolin-2(1H)-yl)prop-2-en-1-one] | 0.001 to 0.5
C=CC(=O)N1CCc2ccc(Oc3ccc(C(F)(F)F)c(F)c3)cc2C1 [P-0045, 1-(7-(3-fluoro-4-(trifluoromethyl)phenoxy)-3,4-dihydroisoquinolin-2(1H)-yl)prop-2-en-1-one] | 0.001 to 0.5
C=CC(=O)N1CCc2ccc(Oc3cccc(C4CC4)c3)cc2C1 [P-0046, 1-(7-(3-cyclopropylphenoxy)-3,4-dihydroisoquinolin-2(1H)-yl)prop-2-en-1-one] | 0.001 to 0.5
C=CC(=O)N1CCc2ccc(Oc3ccc(C4CC4)cc3)cc2C1 [P-0047, 1-(7-(4-cyclopropylphenoxy)-3,4-dihydroisoquinolin-2(1H)-yl)prop-2-en-1-one] | 0.001 to 0.5
C=CC(=O)N1CCc2ccc(Oc3ccc(F)c(C4CC4)c3)cc2C1 [P-0048, 1-(7-(3-cyclopropyl-4-fluorophenoxy)-3,4-dihydroisoquinolin-2(1H)-yl)prop-2-en-1-one] | 0.001 to 0.5
[2H]C([2H])=C([2H])C(=O)N1CCc2ccc(Oc3ccc(C(F)(F)F)c(F)c3)cc2C1 [P-0049, 1-(7-(3-fluoro-4-(trifluoromethyl)phenoxy)-3,4-dihydroisoquinolin-2(1H)-yl)prop-2-en-1-one-2,3,3-d3] | 0.001 to 0.5
C=CC(=O)N1CCc2ccc(Oc3ccc(C4CC4)c(F)c3)cc2C1 [P-0050, 1-(7-(4-cyclopropyl-3-fluorophenoxy)-3,4-dihydroisoquinolin-2(1H)-yl)prop-2-en-1-one] | 0.001 to 0.5
C=C(F)C(=O)N1CCc2ccc(Oc3ccc(C(F)(F)F)nc3)cc2C1 [P-0051, 2-fluoro-1-(7-((6-(trifluoromethyl)pyridin-3-yl)oxy)-3,4-dihydroisoquinolin-2(1H)-yl)prop-2-en-1-one] | 0.001 to 0.5
C=CC(=O)N1CCc2ccc(Oc3ccc(OC(F)(F)F)cc3)cc2C1 [P-0052, 1-(7-(4-(trifluoromethoxy)phenoxy)-3,4-dihydroisoquinolin-2(1H)-yl)prop-2-en-1-one] | > 20
C=CC(=O)N1CCc2ccc(Oc3ccc(C(F)(F)F)cn3)cc2C1 [P-0053, 1-(7-((5-(trifluoromethyl)pyridin-2-yl)oxy)-3,4-dihydroisoquinolin-2(1H)-yl)prop-2-en-1-one formate] | 0.001 to 0.5
C=CC(=O)N1CCc2ccc(NC34CCC(CC3)CC4)cc2C1 [P-0054, 1-(7-(bicyclo[2.2.2]octan-1-ylamino)-3,4-dihydroisoquinolin-2(1H)-yl)prop-2-en-1-one formate] | 0.001 to 0.5
C=CC(=O)N1CCc2ccc(NC3CC4(CCC4)C3)cc2C1 [P-0055, 1-(7-(spiro[3.3]heptan-2-ylamino)-3,4-dihydroisoquinolin-2(1H)-yl)prop-2-en-1-one formate] | 0.001 to 0.5
C=CC(=O)N1CCc2ccc(N[C@H]3CC[C@H](C(F)(F)F)CC3)cc2C1 [P-0056, 1-(7-(((1r,4r)-4-(trifluoromethyl)cyclohexyl)amino)-3,4-dihydroisoquinolin-2(1H)-yl)prop-2-en-1-one] | 0.001 to 0.5
C=CC(=O)N1CCc2ccc(Oc3cc(F)cc(F)c3)cc2C1 [P-0057, 1-(7-(3,5-difluorophenoxy)-3,4-dihydroisoquinolin-2(1H)-yl)prop-2-en-1-one] | 0.001 to 0.5
C=CC(=O)N1CCc2ccc(Oc3cc(F)ccc3F)cc2C1 [P-0058, 1-(7-(2,5-difluorophenoxy)-3,4-dihydroisoquinolin-2(1H)-yl)prop-2-en-1-one] | 0.001 to 0.5
